From ChEMBL document CHEMBL3507680, “University of Dundee, Gates Library screen for HepG2 cell viability”

Test: Human HepG2 cell viability assay in 384 well format
Format: toxicity, cell-based
Parameters: dose 125 nL, time 70.5 hour; concentration not given beside the values
Settings: HepG2 cells, read-out: Inhibition

SMILES | cytotoxicity at 70.5 h [%]
CCNc1nc(-c2cccnc2)c(-c2ccnc(NCCO)n2)s1 | -13.3
CC(=O)N1CCC(n2ccc(-c3cnc(NCC(C)C)nc3)n2)CC1 | -5.12
CC[C@H](C)Nc1ncc(-c2ccn(C3CCN(C(C)=O)CC3)n2)cn1 | -5.16
Cc1csc2ncc(-c3ccnc(N4CCC[C@@H]4CO)n3)c(=O)n12 | -2.68
Cc1cn2c(=O)c(-c3ccnc(NC4CCOCC4)n3)cnc2s1 | -4.12
CC[C@@H](C)[C@@H](N)C(=O)Nc1cccc(-c2cnc(NCCO)nc2)c1 | -7.48
c1cncc(-c2nc(C3CC3)ncc2-c2ccnc(N3CCCC3)n2)c1 | -2.86
CC(C)Nc1nc2c(s1)C(=O)CN(C(=O)NCc1ccccc1)C2 | 1.44
CC(C)CC(=O)N1CC(=O)c2sc(Nc3ccc(F)cc3)nc2C1 | 1.95
Cc1cc2nc(C3CCCCC3)c(-c3ccnc(NCCO)n3)cn2n1 | -5.35
CC(C)CC(=O)N1CC(=O)c2sc(Nc3ccc(C#N)cc3)nc2C1 | 0.0296
CC(C)CC(=O)N1CC(=O)c2sc(NCCc3ccccc3)nc2C1 | 0.452
CC(=O)Nc1nc2c(s1)C1(CCN(C)CC1)Nc1ccccc1S2 | 3.04
CNCC(=O)Nc1ccc(-c2cnc(NCCS(C)(=O)=O)nc2)cc1 | -0.605
CC[C@H](C)[C@H](N)C(=O)Nc1nc(-c2cnc(N(C)CCO)nc2)cs1 | -1.04
CS(=O)(=O)NCc1cc(-c2cc(F)cc(F)c2)nc(N2CCOCC2)n1 | -13.9
CN1CCCN(c2nccc(-c3c[nH]c4ccc(Br)cc34)n2)CC1 | 9.19
Cc1[nH]c2ccccc2c1-c1ccnc(NCCN2CCOCC2)n1 | 25.2
Cc1csc2ncc(-c3ccnc(N4CCCC[C@@H]4CO)n3)c(=O)n12 | 20.9
O=c1c(-c2ccnc(NC3CCOCC3)n2)cnc2sc(Cl)cn12 | 1.36
Cc1ncc(-c2ccnc(N3CCCCC3)n2)c(=O)[nH]1 | -7.09
CNc1nc2c(s1)C(=O)CN(C(=O)NCc1ccccc1)C2 | -9.93

SMILES | cytotoxicity at 70.5 h [%]
CCNc1nc2c(s1)C(=O)CN(C(=O)NCCc1ccccc1)C2 | -17.7
COc1ccc(OC)c(C(C(=O)O)N2CCSCC2)c1 (stereo not drawn) | -4.28
CCOc1ccc(-c2ccnc(C)n2)cc1C(=O)O | -4.51
Cc1noc(C)c1S(=O)(=O)N1C[C@@H](C(=O)O)[C@H](c2ccccn2)C1 | -10.9
Cc1nccn1CCCn1c(=O)cnc2ccccc21 | -10.5
CN1CCCCC1C(=O)N1CCN(c2ccccc2C#N)CC1 (stereo not drawn) | -2.64
CC(C)c1cc(CN(C)C(=O)CN2CCC(C(N)=O)CC2)no1 | -14.7
CCCn1ncc(C(=O)N2CCN(C3CCCC3)CC2)c1C | -3.82
Cc1ccc2[nH]c(CN3CC[C@@H](N4CCN(C)CC4)[C@H](O)C3)c(C)c2c1 | -6.53
CC(O)c1cccc(N2CCC3(CCC(=O)N(CC(N)=O)C3)CC2)n1 (stereo not drawn) | -11.2
CNc1cc(C)nc(NC2CCCN(C3Cc4ccccc4C3)C2)n1 (stereo not drawn) | 28.6
CC(C)Cc1n[nH]c(C2CC(=O)N(CC(C)C)C2)n1 (stereo not drawn) | -5.1
CC(C)N[C@@H]1CC[C@@H]1NC(=O)c1ccccc1OC(F)(F)C(F)F | 14.2
CCn1cc(CN2CCCn3nc(CNS(C)(=O)=O)cc3C2)c(C)n1 | 13.3
Cc1ccc(C(=O)N2CCN(C)C3(CCC(=O)N(C)CC3)C2)c(F)c1 (stereo not drawn) | -9.61
CCCc1cncnc1N1CCC(NCc2ccc(O)cc2)CC1 | -2.53
CCn1ccnc1CN(C)c1nc(-c2ccc(Cl)cc2)nc2c1CNC2 | -9.22
Cc1nn(C)cc1-c1ccnc(N2CCN(c3cnccn3)CC2)n1 | -0.227
O=C(c1cn2ccsc2n1)N1CCN(CC2CC2)[C@@H]2CS(=O)(=O)C[C@@H]21 | -10.5
O=C(c1cn(CCN2CCCCC2)nn1)N1CCCCO1 | 11
O=C1NC2(CCN(C(=O)c3ccc(Cl)cn3)CC2)CC1c1ccccc1 (stereo not drawn) | 8.76
CCc1cnc(NCc2nc(CSC)no2)nc1 | 10.1

SMILES | cytotoxicity at 70.5 h [%]
CCCc1cc(C(=O)N(Cc2cccnc2)C[C@@H]2CCC(=O)N2)no1 | -6.41
Cc1cnc(C)c(N2CCCC(C/C=C/c3ccccc3)(C(=O)O)C2)n1 (stereo not drawn) | -7.68
CN1CCN(Cc2ccccc2Oc2cncc(C(N)=O)n2)CC1 | -3.62
Nc1cc(C(=O)N2CCCC(C(=O)CCc3ccccc3)C2)ccn1 (stereo not drawn) | -3.17
CC(C)c1ncc(CN2C[C@@H](CN3CCC(O)CC3)[C@@H](CO)C2)cn1 | 37.8
CN1CCN(c2ccc(C(=O)N3CCCC(c4ncc[nH]4)C3)cc2)CC1 (stereo not drawn) | -9.77
CC1(C)CNC(=O)c2nc(-c3nnn[nH]3)[nH]c2C1 | -3.01
O=C(CC1COCCN1)N1CCC2(CCc3ccccc32)CC1 (stereo not drawn) | 8.47
CCC[C@@H]1CN(S(=O)(=O)c2ccc3[nH]c(=O)[nH]c3c2)C[C@H]1NC(C)=O | -1.53
Cc1cc(CN(C)C(=O)c2cc(COc3ccccc3)[nH]n2)n[nH]1 | -3.12
Cc1cccc(C)c1C(=O)N1C[C@@H](CN2CCOCC2)[C@@H](CO)C1 | -7.08
CCc1ccccc1OC1CN(C(=O)c2ccnc(OC)c2)C1 | 11.1
Cc1cc(C[C@@H]2COC[C@@H]2NC(=O)CN2CCCCCC2)on1 | -10.1
CCOCc1nccc(-c2ccc(OCC)c(C(=O)O)c2)n1 | 2.25
CCCn1cnnc1CNC(=O)CC1C(=O)NCCN1CC(C)(C)C (stereo not drawn) | -12.5
COc1ccc(Cn2cc(C(=O)N(C)Cc3ccn[nH]3)nn2)cc1 | -18.5
Cc1cc(-c2cccc3c2CCNC3)cnc1-n1cnnc1 | -5.08
CCc1cc(N2CCC(N[C@@H]3CS(=O)(=O)C[C@H]3O)CC2)nc(N(C)C)n1 | 0.303
CCC[C@H]1CN(C(=O)CCn2ccccc2=O)C[C@@H]1NS(C)(=O)=O | -16.2
Fc1cc(Oc2ccc(C(F)(F)F)cn2)cc(F)c1CN1CCCC1 | -4.12
CC(C)C1CN(c2cccc(C#N)n2)CCCN1CC1CC1 (stereo not drawn) | -11.5
Fc1ccccc1-c1noc2c1CN(CCN1CCOCC1)CC2 | 7.36

SMILES | cytotoxicity at 70.5 h [%]
CN(C)CCN(C)C1CCCN(C(=O)c2ccc(Cn3ccnc3)o2)C1 (stereo not drawn) | -9.94
Cc1cccc(C(C(=O)N(C)Cc2cc(C)no2)N(C)C)c1 (stereo not drawn) | -7.53
COCCCC1(CO)CCCN(CCOC)C1 (stereo not drawn) | -4.83
Cc1cccc(SC2CCN(C(=O)CCNS(C)(=O)=O)CC2)c1 | -13.1
Cc1cnc(NCc2cnn(C)c2)nc1-c1cnn(C)c1 | 13.5
C[C@@H]1CN(S(=O)(=O)c2ccc(F)cc2F)C[C@]1(C)O | -1.56
NC(=O)COc1ccc(CN2CC[C@@]3(O)CCCC[C@H]3C2)cc1Cl | -2.71
c1cc(C2CCN(Cc3ccc4c(c3)OCO4)CC2)ccn1 | -2.31
Cc1nnc(N2CCCC(C(=O)c3cccc(Cl)c3)C2)o1 (stereo not drawn) | -3.19
O=C1OCCN1CC(=O)N1C[C@H]2CC[C@@H]1CN(C(=O)c1cccnc1)C2 | -2.17
CCn1ccnc1C1CCCN(c2nccc3ccccc23)C1 (stereo not drawn) | -8.19
Cc1nc(C2CCCNC2)cc(N(Cc2nccn2C)C2CC2)n1 (stereo not drawn) | 7.52
CCn1ccnc1CN(C)C(C(=O)O)c1ccc(C(C)(C)C#N)cc1 (stereo not drawn) | -4.97
CCN(CC)c1ncccc1CNC(=O)c1cc2nc(C)cc(C)n2n1 | -0.33
Cc1nccn1CCC1CCCCN1Cc1ccc2c(c1)OCCO2 (stereo not drawn) | 14.5
O=C(CCc1cc2n(n1)CCCNC2)N1CCN(C2CCCC2)C(=O)C1 | -7.76
Cc1ccc(CN2CCNC(=O)C2CC(=O)NCc2n[nH]c(C)n2)cc1 (stereo not drawn) | -3.13
CCCN(CCC)C(=O)c1cc(CN2CCC(O)CC2)on1 | -6.98
Cc1cc(N[C@H]2CCCN(Cc3ccccc3)C2)n2nc(C)cc2n1 | 1.66
Cc1cc(C)c(C(=O)N[C@H](C(N)=O)c2ccccc2)c(=O)[nH]1 | 12.8
Cc1noc(C)c1CN1CCCCC1CCc1ccc(O)cc1 (stereo not drawn) | -1.36
CSc1nc(N)cc(N2C[C@@H]3CC[C@H](C2)N(CC2CC2)C3=O)n1 | 3.27

SMILES | cytotoxicity at 70.5 h [%]
Cc1ccc(CN2CC[C@@H](NC(=O)c3cccnc3)[C@H](O)C2)o1 | -13.3
COc1nccnc1N1CCN(Cc2ccc(F)cc2)C(=O)C1 | 24.6
Cc1cc(-c2nn(C)c(Cl)c2CN2CC[C@@](O)(C3CCC3)[C@H](C)C2)no1 | 0.567
CC(C)NC(=O)N1CCC(c2nccn2C(C)C)CC1 | -3.22
O=C(NC1CCCCC1)N1CCC(N2Cc3ncccc3C2=O)CC1 | -13.7
Cc1nccc(N2CC[C@@H]3[C@@H](CCC(=O)N3CCc3ccccc3)C2)n1 | -6.49
Cc1ocnc1C(=O)N1CCCC1c1ccc(C(=O)N2CCSCC2)s1 (stereo not drawn) | -7.81
COc1ccc(OCc2cc(C(=O)N3CCSCC3)n[nH]2)c(Cl)c1 | -5.04
COc1cc(N2C[C@@H](C)[C@](O)(C3CC3)C2)ncn1 | 5.18
COC(=O)c1cc(NC(=O)NCC2CCS(=O)(=O)C2)ccc1Cl (stereo not drawn) | -0.58
CCc1ccc(CN(Cc2ccco2)C(C)C(C)C)nc1 (stereo not drawn) | 1.59
COC(=O)[C@H]1C[C@@H](O)CCN1S(=O)(=O)c1cc(Cl)ccc1OC | -11.2
COc1cc(F)c(C(=O)NCc2ccon2)c(F)c1 | -3.42
O=C(c1cn(-c2ccccc2)nn1)N1CCOCC(O)C1 (stereo not drawn) | 15.7
Cc1nc(-c2ccccc2)c(C(=O)N2CCC3(CC(=O)NC3=O)C2)s1 (stereo not drawn) | -6.69
Cc1ccsc1[C@@H]1CCN(C(=O)CCC(=O)c2ccccc2)C[C@H]1O | -9.94
CN(CCc1cnn(C)c1)C(=O)C(c1ccccc1F)N(C)C (stereo not drawn) | 0.281
CN(C)[C@@H]1C[C@@H](CO)N(C(=O)Nc2ccc(SC(F)(F)F)cc2)C1 | 4.27
Nc1ncc(-c2csc(NC(=O)C[C@H]3COCCN3)n2)cn1 | -6.96
CC(C)[C@H](N)CC(=O)Nc1nc(-c2cnc(N3CCOCC3)nc2)cs1 | -1.39
